In patent US8377651B2, “Method for detecting Escherichia coli” (Systagenix Wound Management (US), Inc., priority 2003, dated 2013):
Primed or numbered codes have the meaning given here. No end group written: not given here. *: point of attachment. Dabcyl″ = CN(C)c1ccc(/N=N/c2ccc(C(=O)*)cc2)cc1; EDANS = O=S(=O)(O)c1cccc2c(NCCN*)cccc12; Dabcyl′ = not defined here

Experiments:
[1] = system: protease from Pseudomonas secreted into solution; assay: Protease assay with bacterial culture supernatants; type: biochemical
Description: (§1) The bacteria were grown in an incubator overnight at 37° C. in 5 mL BHT (Brain Heart Infusion) media. Each of the resulting cultures was split into two samples. One was used as a culture, and the other was spun down by centrifugation and the supernatant was collected. The assays were run in 20 mM tris buffer (pH 7.4) with 150 mM NaCl added. The reaction was carried out with 5 μL of culture or supernatant and 5 μL of peptide substrate (10 mg/mL in water) in 100 μL total volume at 37° C. The reaction was followed on a fluorimetric plate reader using an excitation wavelength of 355 nm and an emission wavelength of 485 nm.
(§2) To test whether the protease is membrane associated, as expected for E. coli OmpT, the protease assays were repeated with the supernatants obtained from each bacterial culture.

[2] = system: secreted protease from E. coli; assay: Protease assay with bacterial culture supernatants; type: biochemical, Escherichia coli; conditions: for protease activity with culture supernatant: E. coli culture supernatant
Description: as §1, §2

E. coli cells [3] = assay: Protease assay, labeled peptide substrate with bacterial culture (cells and media); type: cell-based, Escherichia coli; conditions: for protease activity / cleavage of substrate (relative fluorescence): E. coli culture incl. cells and media, 20 mM tris pH 7.4, 150 mM NaCl, 37° C., ex 355 nm, em 485 nm, FIG. 1, 2
Description: (§3) The peptide substrates used here were labeled with the fluorescent probe edans (5((2-aminoethyl)amino)naphthalene-1-sulfonic acid) and the quencher dye molecule dabcyl ((4-(4-(dimethylamino)phenyl)azo)benzoic acid). The labeled peptides ecot1 (T1) and ecot2 (T2) sequences used are as follows:
as §1
(§4) The first set of experiments was performed by addition of the bacterial culture directly into the assay solution. The protease OmpT is a membrane bound protein and would not be expected to be found secreted into the media. The first assay to be run used the peptide ecot1(T1) as substrate.

Pseudomonas = assay: as above; type: cell-based; conditions: Pseudomonas culture incl. cells and media; 20 mM tris pH 7.4, 150 mM NaCl, 37° C.; FIG. 1
Description: as §3, §1, §4

E. coli cultures = assay: Biosensor: his-tagged peptide linked to nickel binding resin exposed to cultures; type: cell-based, Escherichia coli; conditions: E. coli cultures versus BHI media without bacteria
Description: Metal chelate (affinity binding) interactions can provide a stronger bond to biological molecules. A his-tag built into the peptide substrate, for example T4 can be used to allow linkage to a nickel binding resin. The resin is incubated with a suitable culture, for example, E. coli for 30 minutes at 37° C. After centrifugation the buffer is removed and the pelleted resin is imaged. The fluorescence produced by the peptide is then detected.

E. coli [4] = assay: Protease assay with modified (lysine-tagged) substrate and bacterial cultures; type: cell-based, Escherichia coli; conditions: cultures of Pseudomonas, S. aureus, S. epidermidis, S. salivarius, S. pyogenes, Enterococcus, Serratia, 37° C., FIG. 5
Description: The protease assay, described herein for detection of E. colt was run with the modified version of T2, T3. Bacteria (Pseudomonas, E. coli, S. aureus, S. epidermidis, S. salivarius, S. pyogenes, Enterococcus, and Serratia) were grown in an incubator overnight at 37° C. in 5 mL BHI (Brain Heart Infusion) media. The assays were run in 20 mM tris buffer (pH 7.4) with 150 mM NaCl added. The reaction was carried out with 7 μL of culture including cells and media and […] (5 mg/mT, in water) in 100 μL total volume at 37° C. The reaction was followed on a fluorimetric plate reader using an excitation wavelength of 355 nm and an emission wavelength of 485 nm.

E. coli cells [5] = assay: Protease assay in simulated wound fluid buffer (5% bovine serum albumin); type: cell-based, Escherichia coli; conditions: tris-buffered saline plus 5% (by weight) bovine serum albumin, FIG. 4
Description: as §1
The protease assay was also tested in a simulated wound fluid buffer. The buffer was tris-buffered saline, as described above, to which 5% (by weight) bovine serum albumin was added. The protease assay was repeated, again using the 12 peptide substrate.

[6] = system: secreted protease from any of the other bacteria tested; assay: Protease assay with bacterial culture supernatants; type: biochemical
Description: as §1, §2

E. coli [7] = assay: Protease assay in reaction buffer with 5% fetal bovine serum; type: cell-based, Escherichia coli; conditions: buffer plus 5% fetal bovine serum; FIG. 3
Description: as §1
The 12 peptide substrate was further tested for cross reactivity with the types of conditions and molecules that may be present in a wound environment. A fluid that may be present in a wound, at least initially, is serum. In order to test for reactivity with serum the reaction buffer was modified to by addition 5% fetal bovine serum and the protease assay was repeated, using the 12 peptide substrate.

Substance: Edans - DSRPVRRRRRPRVSK - Dabcyl (Edans-DSRPVRRRRRPRVSK-{Dabcyl′}) [T1]
- protease activity with culture supernatant [1]: still present
- protease activity with culture supernatant [2]: not present in the supernatant
- protease activity / cleavage of substrate (relative fluorescence) (E. coli cells [3]): protease activity was observed
- protease activity / cleavage of substrate (relative fluorescence) (Pseudomonas): protease activity was observed

Substance: CHHHAS(E-edans)VSRRRRRGG(K-dabcyl) [T4]
- detection of E. coli by resin-bound peptide fluorescence (E. coli cultures): E. coli was detected

Substance: KKAS(E-edans)VSRRRRRGG(K-dabcyl) (chain 1 KKASE(EDANS); chain 2 VSRRRRRGGK(Dabcyl″); not fully specified; printed as KKAS(E-edans)VSRRRRRGG(K-dabcyl)) [T3]
- specificity of assay among bacteria (cleavage, relative fluorescence over time) (E. coli [4]): specific for E. coli

Substance: Dabcyl - KVSRRRRRGGD - Edans [T2]
- protease reactivity in simulated wound fluid (E. coli cells [5]): not affected by the simulated wound fluid buffer
- selectivity and speed as probe in simulated wound fluid (E. coli cells [5]; various bacteria): rapid and selective probe for the detection of E. coli cells
- reactivity with secreted protease, culture supernatants [6]: did not show any reactivity
- protease activity with culture supernatant [2]: did not show any reactivity
- selectivity for membrane bound protease OmpT ([2]; conclusion from culture versus supernatant assays): selective for the E. coli outer membrane protease OmpT
- protease activity / cleavage of substrate (relative fluorescence) (E. coli cells [3]): reacted with this substrate
- selectivity of substrate among the bacteria tested (E. coli cells [3]; cultures of various bacteria incl. cells and media, FIG. 2): efficient and selective for E. coli
- detection of E. coli in presence of serum (cleavage, relative fluorescence) (E. coli [7]): detection of the presence of E. coli in the E. coli sample occurred
